Assay [1] deals with Ba/F3-AXL cells. In words: Assay for inhibiting the proliferation of Ba/F3-AXL cells (CCK-8). The format is cell-based. The following applies: 72 hours of incubation, medium with 100 ng/mL hGas6, CCK-8. As to the method: The values were then imported into Graphpad Prism 5 software for curve fitting, and IC50 was calculated.
In assay [2] the test system is MHCC97H cells. In words: Assay for inhibiting the proliferation of MHCC97H cells (CCK-8). The format is cell-based. The following applies: Homo sapiens. On the procedure: (§1) In particular, the method of the assay of small molecular compounds for inhibiting cell proliferation is as follows: • 1. Cells cultured to a logarithmic growth phase (adherent cells need to be digested with trypsin and neutralized) were taken, pipetted evenly, transferred to a 15 mL centrifuge tube, and centrifuged at 1000 rpm at room temperature for 4 minutes; • 2. The supernatant was discarded; 5 mL of complete medium was added and pipetted evenly; 10 μL of cell suspension was taken out, mixed well with 10 μL of 0.4% trypan blue, and counted under a cell counter; the proportion of living cells was ensured to be above 90%; • 3. 80 μL of cell suspension per well was seeded into a 96-well plate according to the conditions shown in the attached table, and cultured overnight; in the outer 36 wells of the 96-well plate, no cells were added but only sterile water was added; only the inner 60 wells were used for cell assay and control; • 4. 5×compound dilution: the compounds were serially diluted 3-fold to obtain a total of 9 concentrations; 80-fold overall dilution was completed with complete medium, the resulting concentration was 5 times the final drug concentration, and DMSO concentration was 1.25%; • 5. 20 μL of the corresponding compounds with different concentration gradients were added to each well of assay wells of the 96-well plate; 20 μL of complete medium was added to positive and negative control wells and shaken well; and the final concentration of DMSO in each well was 0.25%; • 6. After 72 hours of incubation, 10 μL of CCK-8 reagent was added to each well and further incubated at 37° C. for 1-2 hours; and the OD value was read at 450 nm; • 7. Cell survival rate (%)=[(As−Ab)/(Ac−Ab)]*100% • As: Assay well (medium containing cells, CCK-8, compound), • Ac: Control well (medium containing cells, CCK-8), • Ab: Blank well (CCK-8, medium without cell and compound), • 8. The values were imported into Graphpad Prism 5 software for IC50 calculation.

Assay [3] has as its system Ba/F3 LMNA-NTRK1 cells. In words: Assay for inhibiting the proliferation of Ba/F3 LMNA-NTRK1 cells (CCK-8). Particulars: Mus musculus, BaF3. The format is cell-based. As to the method:
as §1, with “5×compound dilution: the compounds were serially diluted 3-fold to obtain a total of 9 concentrations; 80-fold overall dilution was completed with complete medium, the resulting concentration was 5 times the final drug concentration, and DMSO concentration was 1.25%; • 5.” left out

Assay [4] has as its system EBC1 cells. In words: Assay for inhibiting the proliferation of EBC1 cells (CCK-8). Type of assay: cell-based. Particulars: Homo sapiens, EBC-1. On the procedure:
as §1

Assay [5] has as its target TRKA kinase (Homo sapiens (Human), UniProt P04629). In words: Assay of small molecular compounds for inhibiting the activity of TRKA kinase (LANCE TR-FRET). Type of assay: biochemical. In outline:
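LANCE TR-FRET with ULight-TK peptide; compounds pre-incubated 5 min with TRKA (2× solution 2 nM), then substrate/ATP added (4× mix: 400 nM peptide, 40 μM ATP). Reaction 60 min at room temperature in dark, 1% DMSO final; stopped, detection developed 60 min, signal read.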
For orientation: In TR-FRET formats the signal depends on donor and acceptor labels being close together.

In assay [6] the target is c-MET kinase (Homo sapiens (Human), UniProt P08581). In words: Assay of small molecular compounds for inhibiting the activity of c-MET kinase (LANCE TR-FRET). The format is biochemical. The following applies: read-out: CMET IC50. Put shortly:
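LANCE TR-FRET assay with c-MET at 1 nM final after a 5 min room-temperature preincubation with compound (11-point, 3-fold series, 2500–0.042 nM final, 4% DMSO). ULight-JAK-1 (Tyr1023) peptide (100 nM final) and ATP (10 μM final) reacted 60 min in the dark. Inhibition was taken relative to controls, then IC50 fitted.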

Assay [7] concerns Ba/F3 LMNA-NTRK1-G595R cells. In words: Assay for inhibiting the proliferation of Ba/F3 LMNA-NTRK1-G595R cells (CCK-8). Particulars: Mus musculus, BaF3. Type of assay: cell-based. On the procedure: as §1

pIC50: −log10 of the molar value.

Chain of TRKA kinase (P04629 33-796): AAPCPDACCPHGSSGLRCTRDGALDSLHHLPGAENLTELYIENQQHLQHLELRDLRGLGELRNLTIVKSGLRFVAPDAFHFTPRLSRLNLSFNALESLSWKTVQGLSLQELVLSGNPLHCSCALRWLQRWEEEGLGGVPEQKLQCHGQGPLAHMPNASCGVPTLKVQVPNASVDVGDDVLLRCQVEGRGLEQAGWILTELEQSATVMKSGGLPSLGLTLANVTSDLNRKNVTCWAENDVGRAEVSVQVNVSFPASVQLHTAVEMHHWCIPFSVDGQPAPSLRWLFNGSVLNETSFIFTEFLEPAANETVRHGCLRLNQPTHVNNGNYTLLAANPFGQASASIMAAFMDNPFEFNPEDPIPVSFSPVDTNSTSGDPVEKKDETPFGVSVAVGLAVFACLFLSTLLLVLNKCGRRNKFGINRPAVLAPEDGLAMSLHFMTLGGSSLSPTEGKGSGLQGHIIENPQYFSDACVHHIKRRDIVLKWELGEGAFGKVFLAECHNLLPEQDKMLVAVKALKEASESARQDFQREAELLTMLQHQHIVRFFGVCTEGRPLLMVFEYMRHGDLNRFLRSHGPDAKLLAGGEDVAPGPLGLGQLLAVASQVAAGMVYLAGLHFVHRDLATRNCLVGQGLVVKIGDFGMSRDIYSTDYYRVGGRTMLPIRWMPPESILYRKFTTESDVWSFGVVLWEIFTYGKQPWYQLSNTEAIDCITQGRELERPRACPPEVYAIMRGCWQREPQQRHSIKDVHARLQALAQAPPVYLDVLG
Chain of c-MET kinase (P08581 25-1390): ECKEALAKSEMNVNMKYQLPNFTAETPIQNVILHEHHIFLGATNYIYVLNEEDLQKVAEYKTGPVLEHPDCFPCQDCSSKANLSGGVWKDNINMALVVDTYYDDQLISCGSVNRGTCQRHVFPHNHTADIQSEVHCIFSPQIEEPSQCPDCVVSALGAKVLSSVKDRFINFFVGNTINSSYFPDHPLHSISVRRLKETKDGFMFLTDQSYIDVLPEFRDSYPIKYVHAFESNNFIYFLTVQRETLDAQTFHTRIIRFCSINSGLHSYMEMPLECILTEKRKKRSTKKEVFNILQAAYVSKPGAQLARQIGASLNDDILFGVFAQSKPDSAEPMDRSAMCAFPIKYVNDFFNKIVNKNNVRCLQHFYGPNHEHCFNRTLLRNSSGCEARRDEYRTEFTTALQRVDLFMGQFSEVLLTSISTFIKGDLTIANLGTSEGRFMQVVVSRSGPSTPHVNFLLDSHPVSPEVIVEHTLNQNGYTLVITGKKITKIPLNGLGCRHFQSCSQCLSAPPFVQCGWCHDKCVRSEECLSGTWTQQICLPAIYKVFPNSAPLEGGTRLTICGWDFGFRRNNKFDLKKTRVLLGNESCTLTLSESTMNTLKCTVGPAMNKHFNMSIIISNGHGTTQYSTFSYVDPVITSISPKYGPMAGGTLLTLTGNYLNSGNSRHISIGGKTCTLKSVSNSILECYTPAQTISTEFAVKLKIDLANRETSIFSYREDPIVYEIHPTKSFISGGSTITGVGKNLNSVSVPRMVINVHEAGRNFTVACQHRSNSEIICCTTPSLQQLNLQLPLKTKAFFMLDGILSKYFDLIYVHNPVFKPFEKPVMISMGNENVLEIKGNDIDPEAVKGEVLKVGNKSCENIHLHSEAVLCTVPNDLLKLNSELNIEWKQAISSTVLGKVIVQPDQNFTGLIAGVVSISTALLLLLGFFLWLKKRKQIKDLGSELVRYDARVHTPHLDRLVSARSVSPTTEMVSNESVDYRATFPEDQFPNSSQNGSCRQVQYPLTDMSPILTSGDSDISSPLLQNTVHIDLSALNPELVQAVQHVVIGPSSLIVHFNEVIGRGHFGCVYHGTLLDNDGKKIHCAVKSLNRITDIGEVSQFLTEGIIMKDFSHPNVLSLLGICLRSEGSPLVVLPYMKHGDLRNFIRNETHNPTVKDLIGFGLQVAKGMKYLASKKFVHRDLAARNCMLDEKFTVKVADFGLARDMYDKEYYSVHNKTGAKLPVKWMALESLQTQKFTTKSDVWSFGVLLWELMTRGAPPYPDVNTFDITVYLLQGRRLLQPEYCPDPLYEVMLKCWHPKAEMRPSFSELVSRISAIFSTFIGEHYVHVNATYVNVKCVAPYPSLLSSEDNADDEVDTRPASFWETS

Turning to `O=C(Nc1ccc(Oc2ccnc3cc(OCCCN4CCOCC4)c4c(c23)OCCO4)c(F)c1)c1cccn(-c2ccc(F)cc2)c1=O` [Example 20, N-(3-fluoro-4-((5-(3-morpholinopropoxy)-2,3-dihydro-[1,4]dioxino[2,3-f]quinolin-10-yl)oxy)phenyl)-1-(4-fluorophenyl)-2-oxo-1,2-dihydropyridine-3-carboxamide], the pIC50 in assay [1] was more than 7.30; in assay [2] it was not below 7.30; in assay [3], more than 7.30; in assay [4] it was not below 7.30.
For the molecule `CCOc1ccn(-c2ccc(F)cc2)c(=O)c1C(=O)Nc1ccc(Oc2ccnc3cc(OCCCCCCN(C)C)c4c(c23)OCCO4)c(F)c1` [Example 60, N-(4-((5-((6-dimethylamino)hexyloxy)-2,3-dihydro-[1,4]dioxino[2,3-f]quinolin-10-yl)oxy)-3-fluorophenyl)-4-ethoxy-1-(4-fluorophenyl)-2-oxo-1,2-dihydropyridine-3-carboxamide], the pIC50 is more than 7.30 in assay [1], 6.70 to 7.30 in assay [2], more than 7.30 in assay [3] and not below 7.30 in assay [4].
On to `CCOc1ccn(-c2ccc(F)cc2)c(=O)c1C(=O)Nc1ccc(Oc2ccnc3cc(OCCCN(C)C)c4c(c23)OCCO4)c(F)c1` [Example 61, N-(4-((5-((3-dimethylamino)propoxy)-2,3-dihydro-[1,4]dioxino[2,3-f]quinolin-10-yl)oxy)-3-fluorophenyl)-4-ethoxy-1-(4-fluorophenyl)-2-oxo-1,2-dihydropyridine-3-carboxamide], for which the pIC50 in assay [1] is more than 7.30; in assay [2] it was not below 7.30; in assay [3], more than 7.30; in assay [4] it was not below 7.30.
As to `CCn1cc(C(=O)Nc2ccc(Oc3ccnc4cc(OC)c5c(c34)OCCO5)cc2F)c(=O)n(-c2ccc(F)cc2)c1=O` [Example 154, N-(2-fluoro-4-((5-methoxy-2,3-dihydro-[1,4]dioxino[2,3-f]quinolin-10-yl)oxy)phenyl)-3-(4-fluorophenyl)-1-ethyl-2,4-dioxo-1,2,3,4-tetrahydropyrimidine-5-carboxamide], the pIC50 was more than 7.30 in assay [5], not below 7.30 in assay [6], more than 7.30 in assay [3] and 6.70 to 7.30 in assay [7].
As for `Cn1cc(C(=O)Nc2ccc(Oc3ccnc4ccc5c(c34)OCCO5)cc2)c(=O)n(-c2ccc(F)cc2)c1=O` [Example 158, N-(4-((2,3-dihydro-[1,4]dioxino[2,3-f]quinolin-10-yl)oxy)phenyl)-3-(4-fluorophenyl)-1-methyl-2,4-dioxo-1,2,3,4-tetrahydropyrimidine-5-carboxamide], the pIC50 is 6.30 to 7.30 in assay [5], 6.00 to 6.70 in assay [3] and less than 6.00 in assay [7].
The corresponding values for `CCn1cc(C(=O)Nc2ccc(Oc3ccnc4ccc5c(c34)OCCO5)cc2)c(=O)n(-c2ccc(F)cc2)c1=O` [Example 159, N-(4-((2,3-dihydro-[1,4]dioxino[2,3-f]quinolin-10-yl)oxy)phenyl)-3-(4-fluorophenyl)-1-ethyl-2,4-dioxo-1,2,3,4-tetrahydropyrimidine-5-carboxamide] are 6.30 to 7.30, 6.00 to 6.70 and less than 6.00.
The corresponding values for `Cc1cc(Oc2ccnc3ccc4c(c23)OCCO4)c(F)cc1NC(=O)c1cn(C)c(=O)n(-c2ccc(F)cc2)c1=O` [Example 175, N-(4-((2,3-dihydro-[1,4]dioxino[2,3-f]quinolin-10-yl)oxy)-5-fluoro-2-methylphenyl)-3-(4-fluorophenyl)-1-methyl-2,4-dioxo-1,2,3,4-tetrahydropyrimidine-5-carboxamide] are more than 7.30, more than 7.30 and 6.70 to 7.30.

What is called pIC50 is the IC50 on a negative log10 scale, so that one unit is a factor of ten.

These data come from US12202835B2, “Substituted aromatic ring-linked dioxinoquinazolines and dioxinoquinolines as kinase inhibitors” (BEIJING SCITECH-MQ PHARMACEUTICALS LIMITED, priority 2018, dated 2025).
